Assay results as given in patent publication US20250195511A1, “INDAZOLE DERIVATIVES USEFUL AS INHIBITORS OF NOD-LIKE RECEPTOR PROTEIN 3” (Merck Sharp & Dohme LLC, priority 2023, published 2025).

System: NLRP3 inflammasome
Assay: NLRP3 inflammasome activation: ASC-SPECK formation in gramicidin-stimulated THP-1 cells
Assay type: cell-based
Details: inhibition of ASC SPECK formation; PMA-treated human monocytic THP-1 cells, compound 1 h before 12.5 μg/ml gramicidin, 3-hour treatment
From the text: Activation of the canonical NLRP3 inflammasome requires two steps, priming and activation. A priming signal such as a pathogen activated molecular patterns (PAMPs) or danger-activated molecular patterns (DAMPs) are recognized by Toll-like receptors leads to nuclear factor kappa B (NF-KB)-mediated signaling. […] The second step is activation which induces oligomerization of NLRP3 and subsequent assembly of NLRP3, apoptosis-associated speck-like protein containing a CARD (ASC), and procaspase-1 into an inflammasome complex. This triggers the transformation of procaspase-1 to caspase-1, and the production and secretion of mature IL-1β and IL-18 (Kim et al., J. Inflamm. 2015, 12, 41; Ozaki et al., J. Inflamm. Res. 2015, 8, 15-27; Rabeony et al., Eur. J. Immunol. 2015, 45, 2847). During inflammasome complex assembly, the oligomerization of NLRP3 triggers the nucleation of ASC and an event commonly referred to as “ASC SPECK” formation, as it is identified in the cell as a discrete puncta within the cell after staining and visualization of ASC using common immunocytochemical methods.
The ability of compounds to inhibit NLRP3 inflammasome activation was determined in vitro by monitoring formation of the ASC-SPECK in human monocytic THP-1 cells after stimulation. THP-1 cells (ATCC catalog #TIB-202) were maintained in complete growth media containing Roswell Park Memorial Institute RPMI (ATCC catalog #30-2001), 10% heat inactivated fetal bovine serum, 1× penicillin/streptomycin and 0.05 mM 2-mercaptoethanol. At the start of the assay, undifferentiated THP-1 cells were plated at a density of 20,000 cells per well in a 384-well plate (Poly-D-lysine coated Cell Carrier Ultra microplate, Perkin Elmer catalog #6057500) in complete growth media supplemented with 10 ng/ml phorbol 12-myristate 13-acetate (PMA; Sigma catalog #P8139), and then incubated overnight. The next day, media was replaced with assay media (RPMI (Gibco catalog #11875-093), 0.01% bovine serum albumin (BSA)). Compounds were serially diluted in DMSO and then added to wells one hour prior to the addition of 12.5 μg/ml Gramicidin (Enzo Lifescience, catalog #ALX-350-233-M005). All incubations were carried out at 37° C. (5% CO2/95% air). Following a 3-hour treatment with gramicidin, cells are fixed with 4% paraformaldehyde and stored at 4° C. until immunofluorescence staining.
Immunofluorescence staining: Anti-ASC antibody (MBL catalog #D086-3) was desalted and labeled with Alexa 488 antibody labeling kit (Thermo catalog #A20181) prior to use as described below. After fixation, the following steps were carried out at rt. Cells were first permeabilized with 0.3% polyethylene glycol tert-octylphenyl ether (Triton X-100) in phosphate-buffered saline (PBS) for 15 minutes and then incubated in blocking buffer containing 5% goat serum, 0.3% polyethylene glycol sorbitan monolaurate (Tween-20) and 0.03% sodium azide in PBS for 1 hour. Cells were stained with a mixture of ASC-Alexa 488 antibody (diluted 1:200 in blocking buffer) and nuclear stain DRAQ5 (1:5000 in blocking buffer, Thermo catalog #62251) in blocking buffer for 1 hour. Following a wash with 0.3% polyethylene glycol sorbitan monolaurate (Tween-20) in PBS, plates were imaged with an Opera Phenix High Content Screening System. The number of DRAQ5 positive cells containing ASC SPECKS were quantified in each well.
Data analysis: EC50 values were calculated by standard curve-fitting analysis using an internally developed program in TIBCO Spotfire software.

Row | Compound | EC50 [nM]
1 | Cc1cc(C(F)(F)F)cc(O)c1-c1cnc2cn(C3C4CS(=O)(=O)CC43)nc2n1 (single isomer, unassigned) [Example 54, (1R,5S,6R or 1R,5S,6S)-6-(6-(2-hydroxy-6-methyl-4-(trifluoromethyl)phenyl)-2H-pyrazolo[3,4-b]pyrazin-2-yl)-3-thiabicyclo[3.1.0]hexane 3,3-dioxide] | 98
2 | Cc1cc(C(F)(F)F)cc(O)c1-c1cnc2cn(CC3CC(=O)N(C)C3)nc2n1 (single isomer, unassigned) [Example 58, (R or S)-4-((6-(2-hydroxy-6-methyl-4-(trifluoromethyl)phenyl)-2H-pyrazolo[3,4-b]pyrazin-2-yl)methyl)-1-methylpyrrolidin-2-one] | 298
3 | Cc1cc(C(F)(F)F)cc(O)c1-c1cnc2cn(CC3CC(=O)N(C4CC4)C3)nc2n1 (single isomer, unassigned) [Example 62, (R or S)-1-cyclopropyl-4-((6-(2-hydroxy-6-methyl-4-(trifluoromethyl)phenyl)-2H-pyrazolo[3,4-b]pyrazin-2-yl)methyl)pyrrolidin-2-one] | 291
4 | Cc1cc(C(F)(F)F)cc(O)c1-c1cnc2cn(CC3CC(=O)N(C4CC4)C3)nc2n1 (single isomer, unassigned) [Example 63, (S or R)-1-cyclopropyl-4-((6-(2-hydroxy-6-methyl-4-(trifluoromethyl)phenyl)-2H-pyrazolo[3,4-b]pyrazin-2-yl)methyl)pyrrolidin-2-one] | 12
5 | CCN1CC(n2cc3ncc(-c4c(C)cc(C(F)(F)F)cc4O)nc3n2)CCC1=O (single isomer, unassigned) [Example 64, (R or S)-1-ethyl-5-(6-(2-hydroxy-6-methyl-4-(trifluoromethyl)phenyl)-2H-pyrazolo[3,4-b]pyrazin-2-yl)piperidin-2-one] | 10
6 | CCN1CC(n2cc3ncc(-c4c(C)cc(C(F)(F)F)cc4O)nc3n2)CCC1=O (single isomer, unassigned) [Example 65, (S or R)-1-ethyl-5-(6-(2-hydroxy-6-methyl-4-(trifluoromethyl)phenyl)-2H-pyrazolo[3,4-b]pyrazin-2-yl)piperidin-2-one] | 79
7 | CCN1CC(Cn2cc3ncc(-c4c(C)cc(C(F)(F)F)cc4O)nc3n2)CC1=O (single isomer, unassigned) [Example 66, (R or S)-1-ethyl-4-((6-(2-hydroxy-6-methyl-4-(trifluoromethyl)phenyl)-2H-pyrazolo[3,4-b]pyrazin-2-yl)methyl)pyrrolidin-2-one] | 359
8 | CCN1CC(Cn2cc3ncc(-c4c(C)cc(C(F)(F)F)cc4O)nc3n2)CC1=O (single isomer, unassigned) [Example 67, (S or R)-1-ethyl-4-((6-(2-hydroxy-6-methyl-4-(trifluoromethyl)phenyl)-2H-pyrazolo[3,4-b]pyrazin-2-yl)methyl)pyrrolidin-2-one] | 7
9 | Cc1cc(C(F)(F)F)cc(O)c1-c1cnc2cn(C3CCc4nnn(C)c4C3)nc2n1 (single isomer, unassigned) [Example 69, (S or R)-3-methyl-2-(2-(1-methyl-4,5,6,7-tetrahydro-1H-benzo[d][1,2,3]triazol-6-yl)-2H-pyrazolo[3,4-b]pyrazin-6-yl)-5-(trifluoromethyl)phenol] | 15
10 | Cc1cc(C(F)(F)F)cc(O)c1-c1cnc2cn(C3CCc4nnc(C(F)(F)F)n4C3)nc2n1 (single isomer, unassigned) [Example 71, (S or R)-3-methyl-5-(trifluoromethyl)-2-(2-(3-(trifluoromethyl)-5,6,7,8-tetrahydro-[1,2,4]triazolo[4,3-a]pyridin-6-yl)-2H-pyrazolo[3,4-b]pyrazin-6-yl)phenol] | 198
11 | CCc1nnc2n1CC(n1cc3ncc(-c4c(C)cc(C(F)(F)F)cc4O)nc3n1)CC2 (single isomer, unassigned) [Example 72, (R or S)-2-(2-(3-ethyl-5,6,7,8-tetrahydro-[1,2,4]triazolo[4,3-a]pyridin-6-yl)-2H-pyrazolo[3,4-b]pyrazin-6-yl)-3-methyl-5-(trifluoromethyl)phenol] | 20
12 | CCc1nnc2n1CC(n1cc3ncc(-c4c(C)cc(C(F)(F)F)cc4O)nc3n1)CC2 (single isomer, unassigned) [Example 73, (S or R)-2-(2-(3-ethyl-5,6,7,8-tetrahydro-[1,2,4]triazolo[4,3-a]pyridin-6-yl)-2H-pyrazolo[3,4-b]pyrazin-6-yl)-3-methyl-5-(trifluoromethyl)phenol] | 142
13 | Cc1cc(C(F)(F)F)cc(O)c1-c1cnc2cn(C3(C)CC(F)C3)nc2n1 (single isomer, unassigned) [Example 75, 2-(2-((1S,3S or 1R,3R)-3-fluoro-1-methylcyclobutyl)-2H-pyrazolo[3,4-b]pyrazin-6-yl)-3-methyl-5-(trifluoromethyl)phenol] | 262
14 | Cc1cc(C(F)(F)F)cc(O)c1-c1cnc2cn(C34CC3COC4(C)C)nc2n1 (single isomer, unassigned) [Example 77, 2-(2-((1S,5S or 1R,5R)-2,2-dimethyl-3-oxabicyclo[3.1.0]hexan-1-yl)-2H-pyrazolo[3,4-b]pyrazin-6-yl)-3-methyl-5-(trifluoromethyl)phenol] | 445

Further molecules by falling EC50, results first:

Row | EC50 [nM] | Compound
15 | 101 | Cc1cc(C(F)(F)F)cc(O)c1-c1cnc2cn(C3CCC(=O)N(C(C)C)C3)nc2n1 (single isomer, unassigned) [Example 61, (S or R)-5-(6-(2-hydroxy-6-methyl-4-(trifluoromethyl)phenyl)-2H-pyrazolo[3,4-b]pyrazin-2-yl)-1-isopropylpiperidin-2-one]
16 | 99 | Cc1cc(C(F)(F)F)cc(O)c1-c1cnc2cn(C34CC3COC4(C)C)nc2n1 (single isomer, unassigned) [Example 76, 2-(2-((1R,5R or 1S,5S)-2,2-dimethyl-3-oxabicyclo[3.1.0]hexan-1-yl)-2H-pyrazolo[3,4-b]pyrazin-6-yl)-3-methyl-5-(trifluoromethyl)phenol]
17 | 66 | Cc1cc(C(F)(F)F)cc(O)c1-c1cnc2cn(C3(C)CC(F)C3)nc2n1 (single isomer, unassigned) [Example 74, 2-(2-((1R,3R or 1S,3S)-3-fluoro-1-methylcyclobutyl)-2H-pyrazolo[3,4-b]pyrazin-6-yl)-3-methyl-5-(trifluoromethyl)phenol]
18 | 40 | Cc1cc(C(F)(F)F)cc(O)c1-c1cnc2cn(C3CCc4nnn(C)c4C3)nc2n1 (single isomer, unassigned) [Example 68, (R or S)-3-methyl-2-(2-(1-methyl-4,5,6,7-tetrahydro-1H-benzo[d][1,2,3]triazol-6-yl)-2H-pyrazolo[3,4-b]pyrazin-6-yl)-5-(trifluoromethyl)phenol]
19 | 20 | Cc1cc(C(F)(F)F)cc(O)c1-c1cnc2cn(CC3CC(=O)N(C)C3)nc2n1 (single isomer, unassigned) [Example 59, (S or R)-4-((6-(2-hydroxy-6-methyl-4-(trifluoromethyl)phenyl)-2H-pyrazolo[3,4-b]pyrazin-2-yl)methyl)-1-methylpyrrolidin-2-one]
20 | 12 | Cc1cc(C(F)(F)F)cc(O)c1-c1cnc2cn(C3CCc4nnc(C(F)(F)F)n4C3)nc2n1 (single isomer, unassigned) [Example 70, (R or S)-3-methyl-5-(trifluoromethyl)-2-(2-(3-(trifluoromethyl)-5,6,7,8-tetrahydro-[1,2,4]triazolo[4,3-a]pyridin-6-yl)-2H-pyrazolo[3,4-b]pyrazin-6-yl)phenol]
21 | 7 | Cc1cc(C(F)(F)F)cc(O)c1-c1cnc2cn(C3CCC(=O)N(C(C)C)C3)nc2n1 (single isomer, unassigned) [Example 60, (R or S)-5-(6-(2-hydroxy-6-methyl-4-(trifluoromethyl)phenyl)-2H-pyrazolo[3,4-b]pyrazin-2-yl)-1-isopropylpiperidin-2-one]
